Tests used:
[1] = tested on: C57Bl6 mouse; assay: Plasma cholesterol assays and lipoprotein distribution in the C57Bl6 mouse (compounds 4 and 7); format: in vivo; conditions: for lipid profile: C57Bl6 mice treated for 14 days; for plasma HDL-cholesterol levels / plasma total cholesterol levels / plasma HDL-cholesterol level (distribution of cholesterol in the plasma lipoprotein fractions): C57Bl6 mouse, 14 days; for plasma HDL-cholesterol levels / plasma total cholesterol levels: 50 mpk oral; for plasma HDL-cholesterol level (distribution of cholesterol in the plasma lipoprotein fractions): 50 mpk
Experimental: The effect of the compounds according to the invention was evaluated in vivo in the C57Bl6 mouse after 14 days of treatment by the oral route. At the end of the treatment, the distribution of cholesterol in the various plasma lipoprotein fractions was determined. This was compared with the profile obtained in the control animals (not treated with the compounds according to the invention). The effect of the compounds according to the invention was evaluated in the C57Bl6 mouse by measuring the plasma levels of total cholesterol and of HDL-cholesterol after 14 days of treatment by the oral route. These levels were compared with those obtained with control animals (not treated with the compounds according to the invention). The measured difference provides evidence of the antilipemic effect of the compounds according to the invention.
Female C57Bl6 mice were kept under a cycle of light and darkness of 12/12 hours at a constant temperature of 20±3° C. After acclimation for one week, the mice were weighed and put into groups of 6 animals selected so that the distribution of their body weight, of their plasma lipid levels and of total cholesterol determined for the first time before the experiment, is uniform. The test compounds were suspended in carboxymethylcellulose (Sigma C4888) and administered by intragastric force feeding, at a rate of once per day for 14 days at the chosen dose. The animals had free access to water and to food (standard diet). At the end of the experiment, the animals were anesthetized after fasting for 4 hours, a blood sample was taken using anticoagulant (EDTA), then the mice were weighed and euthanased. The plasma was separated by centrifugation at 3000 rev/min for 20 minutes, and the samples were stored at +4° C.
The plasma concentrations of total cholesterol were measured by enzyme assays (bioMérieux-Lyon-France) following the supplier's recommendations.
The low-density lipoproteins (VLDL and LDL) were precipitated with phosphotungstate. The precipitate was removed by centrifugation. The HDL-cholesterol present in the supernatant was quantified by enzyme assays (bioMérieux-Lyon-France) following the supplier's recommendations.
The various lipid fractions (VLDL, LDL, HDL) of the plasma were separated by gel filtration chromatography. The concentrations of cholesterol were then measured in each fraction by enzyme assays (bioMérieux-Lyon-France) following the supplier's recommendations.

[2] = biological target: T1, hPPARgamma (Homo sapiens, UniProt P37231); assay: PPAR activation: Gal4-hPPARγ chimera luciferase transactivation in COS-7 cells, Method 2; format: cell-based; conditions: COS-7, 24 h, Method 2
T1 construct: expressed in transfected cells; host or cells: COS-7 (monkey kidney fibroblasts)
T1 sequence (P37231 238-503 limits assumed): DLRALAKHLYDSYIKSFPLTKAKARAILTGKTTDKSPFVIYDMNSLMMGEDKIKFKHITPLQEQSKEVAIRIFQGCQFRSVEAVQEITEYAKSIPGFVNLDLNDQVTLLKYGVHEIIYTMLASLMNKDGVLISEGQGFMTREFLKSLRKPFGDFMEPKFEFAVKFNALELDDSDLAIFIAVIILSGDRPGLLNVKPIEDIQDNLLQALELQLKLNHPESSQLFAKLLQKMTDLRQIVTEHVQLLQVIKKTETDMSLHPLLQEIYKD
In short: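 Transactivation by a Gal4 DNA-binding domain–hPPARγ ligand-binding domain chimera with a Gal4(RE)-luciferase reporter, transfected into COS-7 cells (plasmid ratio 1/10).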

SMILES	lipid profile [1]	plasma HDL-cholesterol levels [1]	plasma total cholesterol levels [1]	plasma HDL-cholesterol level (distribution of cholesterol in the plasma lipoprotein fractions) [1]	Emax ([2]; maximum percentage response relative to the reference rosiglitazone, read-out: hPPARgamma % max)	EC50 ([2]; 1% Ultroser, read-out: hPPARgamma EC50)
CC(C)(Oc1ccc(CCC(O)c2ccc(-c3ccc(C(F)(F)F)cc3)s2)c(Cl)c1Cl)C(=O)O (stereo not shown) [Compound 4, 2-(2,3-dichloro-4-(3-hydroxy-3-(5-(4-(trifluoromethyl)phenyl)thien-2-yl)propyl)phenoxy)-2-methylpropanoic acid]	improve	significantly increased	significantly increased	increased		
CC(C)(Oc1ccc(CCC(OCc2ccccc2)c2ccc(-c3ccc(C(F)(F)F)cc3)s2)c(Cl)c1Cl)C(=O)O (stereo not shown) [Compound 7, 2-(4-(3-(benzyloxy)-3-(5-(4-(trifluoromethyl)phenyl)thien-2-yl)propyl)-2,3-dichlorophenoxy)-2-methylpropanoic acid]	improve	nonsignificant increase	significantly increased	increased	40%	1.7 µM
